According to US10179355B2, “Bioremediation enhancing agents and methods of use” (JRW BIOREMEDIATION, LLC, priority 2007, dated 2019):
Values joined by “and” are separate entries in the source; they are usually repeats but may differ in a detail not shown here. Equal values may be shown once.

Tests used:
[1] = system: dechlorinating bacteria known to convert PCE to ethene; experiment: Set G: Additional Yeast Metabolites and Polysaccharides as Nutrients, PCE dechlorination microcosms (kinetics, Relative Rate, paired t-test); assay type: cell-based, Dehalococcoides and Dehalobacter spp.
Excerpt: Certain contaminated materials (or sites) may contain indigenous microbial communities that are sufficient for complete bioremediation of contaminants. For such sites, there is no need to add microbes unless the indigenous microbes are genetically deficient in achieving the desired clean-up goals. For those sites that are microbiologically limited, microorganisms may be added to the contaminated materials (or sites). In one embodiment, the inoculum may be a mixed culture of halo-respiring bacteria that have been enriched to reach an optimal cell density. These mixed cultures of halo-respiring bacteria may be typically obtained from sediment samples from rivers, streams or any waterways. More specifically, the inoculum used in the Examples was originated from a Sangamon River sediment sample (Lodge Park, Piatt County, Ill.) See, e.g., Brennan, R. A., Sanford, R. A. and Werth, C. J. (2006). “Biodegradation of Tetrachloroethene by Chitin Fermentation Products in a Continuous Flow Column System.” Journal of Environ. Engr., June 665-673. This culture had grown for several years on PCE, anaerobic basal salts medium, Wolfe's vitamin solution and various electron donors including lactate (1-2 millimolar (mM)), formate (4 mM) and chitin using the Volatile Interface Transfer Apparatus (VITA) reactor system at the University of Illinois. Brennan, R. A., and Sanford, R. A. (2002). “Continuous steady-state method using Tenax for delivering tetrachloroethene to chlororespiring bacteria.” Appl. Environ. Microbiol., 68(3), 1464-1467. […] Using 16S rRNA gene-specific primers, both Dehalococcoides and Dehalobacter spp. were detected. Quantitative real-time PCR has been used to determine that approximately 1.65×10^7 Dehalococcoides gene copies were present per ml of culture.
For purpose of this disclosure, each bottle may be started with a certain amount of PCE. At subsequent times each bottle may be sampled for the degradation daughter products of PCE, namely trichloroethene (TCE), cis-dichloroethene (DCE), vinyl chloride (VC) and ethene, etc. Trans-DCE and 1,1-DCE are also daughter products of PCE, but they may not be detectable under the conditions disclosed here.
The rate of degradation may be determined by calculating the number of pmoles of chloride ions removed from PCE and subsequently from the amounts of the daughter products generated. The calculation may be performed as follows: Chloride (μmoles)=[…]−4×PCE (μmoles)−3×TCE (pmoles)−2×DCE (μmoles)−VC (μmoles)
The alternative chloride calculation is: Chloride (μmoles)=TCE (μmoles)+2×DCE (μmoles)+3×VC (μmoles)+4×Ethene (μmoles)
Next, the dechlorination rate may be determined for each bottle at each time by dividing the Chloride generated by the time (days). The data may be then normalized to the lactate control by taking the ratio of Chloride Rate (pmoles/day) and the Lactate Control Chloride Rate (pmoles/day). This ratio is called Relative Rate and is dimensionless.
As shown in the Examples, a paired t-test has been conducted to calculate the probability that the Relative Rate of one group (i.e. with Nutrient) is greater than the other group (i.e. without Nutrient). The null hypothesis is that the underlying means of the two paired groups are equal. The Probability that one group has higher Relative Rates than the other group is shown in various tables in the Examples.
The following components were used in the system for bioremediating contaminated ground water microcosms in Examples 2-8: • 160 milliliter (ml) stoppered serum bottles • 100 ml of anaerobic culture medium, groundwater containing an excess of bioavailable phosphorus and nitrogen at 0.5 mM Phosphate and 1 mM ammonium degassed with a nitrogen sparge • Nominally 1 gram of limestone • 19.54 micromoles (pmoles) Perchloroethene (PCE) • An excess of various electron donors were utilized • 3 ml of inoculum containing dechlorinating bacteria known to convert PCE to ethene. […]

[2] = system: dechlorinating bacteria known to convert PCE to ethene; experiment: Set B: Efficiency of electron donor utilization by COD analysis; assay type: cell-based, Dehalococcoides and Dehalobacter spp.
Excerpt: Sets B, C, D, E, and G further contain figures and tables showing results of the characterization of the Efficiency and the Relative Efficiency of electron donor usage. Efficiency may be defined as the percent of electron donor utilized for dechlorination, and may be calculated by dividing the pmoles of Chloride ion generated by the pmoles of electron donor consumed as measured by either Volatile Fatty Acid (VFA) analysis (Sets B, C, and G) or Chemical Oxygen Demand (COD) analysis (Set D and E). The Relative Efficiency of the electron donor utilization may be defined as the Efficiency of the Electron Donor divided by the Efficiency of the Lactate Control.
Table 10 and FIG. 9 show the efficiency of electron donor (e^−) utilization as measured by COD analysis. The COD analysis calculates the utilization of electron donor by measuring the starting COD and the final COD taking the difference and converting mg/L to pmoles of electrons. The pmoles of electrons used for dechlorination was determined from the calculated Chloride produced leading to an Efficiency and Relative Efficiency of electron donor utilization as compared to lactate.

Q: Which “Cl^− Rate ± s.d.” value ([1]; 0 days) does the source give for `CC(O)C(=O)[O-].[Na+]` (centres unmarked) [Lactate Control, sodium lactate] here?
A: Its value is 0.00 ± 0.00 µmol.

Q: And the “Cl^− ± s.d.” value ([1]; 0 days)?
A: The value was 0.00 ± 0.00 µmol.

Q: What about the “DCE ± s.d.” value ([1]; 0 days) of the same molecule?
A: The value was 0.00 ± 0.00 µmol.

Q: What about the “Ethene ± s.d.” value ([1]; 0 days) of the same molecule?
A: The value was 0.00 ± 0.00 µmol.

Q: And the “PCE ± s.d.” value ([1]; 0 days)?
A: Its value is 20.80 ± 0.95 µmol.

Q: What about the “TCE ± s.d.” value ([1]; 0 days) of the same molecule?
A: Its value is 0.00 ± 0.00 µmol.

Q: What about the “VC ± s.d.” value ([1]; 0 days) of the same molecule?
A: Its value is 0.00 ± 0.00 µmol.

Q: And the “Cl^− Rate ± s.d.” value ([1]; 21 days)?
A: The value was 0.13 ± 0.05 µmol.

Q: And the “Cl^− ± s.d.” value ([1]; 21 days)?
A: The value was 2.83 ± 1.04 µmol.

Q: What about the “DCE ± s.d.” value ([1]; 21 days) of the same molecule?
A: The value was 0.31 ± 0.18 µmol.

Q: And the “Ethene ± s.d.” value ([1]; 21 days)?
A: The value was 0.07 ± 0.01 µmol.

Q: What about the “PCE ± s.d.” value ([1]; 21 days) of the same molecule?
A: Its value is 18.6 ± 0.45 µmol.

Q: And the “TCE ± s.d.” value ([1]; 21 days)?
A: Its value is 1.91 ± 0.71 µmol.

Q: What about the “VC ± s.d.” value ([1]; 21 days) of the same molecule?
A: Its value is 0.00 ± 0.00 µmol.

Q: And the “Cl^− Rate ± s.d.” value ([1]; 35 days)?
A: Its value is 0.26 ± 0.10 µmol.

Q: And the “Cl^− ± s.d.” value ([1]; 35 days)?
A: Its value is 8.95 ± 3.33 µmol.

Q: What about the “DCE ± s.d.” value ([1]; 35 days) of the same molecule?
A: Its value is 1.39 ± 0.72 µmol.

Q: What about the “Ethene ± s.d.” value ([1]; 35 days) of the same molecule?
A: Its value is 0.07 ± 0.00 µmol.

Q: And the “PCE ± s.d.” value ([1]; 35 days)?
A: Its value is 10.80 ± 1.36 µmol.

Q: And the “TCE ± s.d.” value ([1]; 35 days)?
A: The value was 5.91 ± 1.90 µmol.

Q: And the “VC ± s.d.” value ([1]; 35 days)?
A: Its value is 0.00 ± 0.00 µmol.

Q: What about the “Cl^− Rate ± s.d.” value ([1]; 50 days) of the same molecule?
A: Its value is 0.49 ± 0.10 µmol.

Q: What about the “Cl^− ± s.d.” value ([1]; 50 days) of the same molecule?
A: Its value is 24.59 ± 5.08 µmol.

Q: And the “DCE ± s.d.” value ([1]; 50 days)?
A: Its value is 9.70 ± 2.99 µmol.

Q: What about the “Ethene ± s.d.” value ([1]; 50 days) of the same molecule?
A: The value was 0.07 ± 0.00 µmol.

Q: And the “PCE ± s.d.” value ([1]; 50 days)?
A: The value was 3.13 ± 1.26 µmol.

Q: And the “TCE ± s.d.” value ([1]; 50 days)?
A: Its value is 4.92 ± 1.03 µmol.

Q: What about the “VC ± s.d.” value ([1]; 50 days) of the same molecule?
A: The value was 0.00 ± 0.00 µmol.

Q: What about the “Cl^− Rate ± s.d.” value ([1]; 79 days) of the same molecule?
A: Its value is 0.53 ± 0.02 µmol.

Q: What about the “Cl^− ± s.d.” value ([1]; 79 days) of the same molecule?
A: The value was 42.00 ± 1.93 µmol.

Q: What about the “DCE ± s.d.” value ([1]; 79 days) of the same molecule?
A: The value was 20.84 ± 0.96 µmol.

Q: And the “Ethene ± s.d.” value ([1]; 79 days)?
A: The value was 0.07 ± 0.00 µmol.

Q: What about the “PCE ± s.d.” value ([1]; 79 days) of the same molecule?
A: Its value is 0.00 ± 0.00 µmol.

Q: What about the “TCE ± s.d.” value ([1]; 79 days) of the same molecule?
A: The value was 0.04 ± 0.07 µmol.

Q: What about the “VC ± s.d.” value ([1]; 79 days) of the same molecule?
A: Its value is 0.00 ± 0.01 µmol.

Q: And the “Cl^− Rate ± s.d.” value ([1]; 138 days)?
A: Its value is 0.24 ± 0.01 µmol.

Q: What about the “Cl^− ± s.d.” value ([1]; 138 days) of the same molecule?
A: The value was 33.42 ± 1.26 µmol.

Q: And the “DCE ± s.d.” value ([1]; 138 days)?
A: The value was 16.55 ± 0.64 µmol.

Q: And the “Ethene ± s.d.” value ([1]; 138 days)?
A: Its value is 0.06 ± 0.00 µmol.

Q: And the “PCE ± s.d.” value ([1]; 138 days)?
A: The value was 0.00 ± 0.00 µmol.

Q: And the “TCE ± s.d.” value ([1]; 138 days)?
A: The value was 0.00 ± 0.00 µmol.

Q: What about the “VC ± s.d.” value ([1]; 138 days) of the same molecule?
A: The value was 0.03 ± 0.03 µmol.

Q: What about the “Relative Rate” value ([1]; bottle 1, 21 days) of the same molecule?
A: Its value is 0.78.

Q: What about the “Relative Rate” value ([1]; bottle 1, 35 days) of the same molecule?
A: Its value is 0.63.

Q: What about the “Relative Rate” value ([1]; bottle 1, 50 days) of the same molecule?
A: The value was 0.86.

Q: And the “Relative Rate” value ([1]; bottle 1, 79 days)?
A: The value was 1.08.

Q: What about the “Relative Rate” value ([1]; bottle 1, 138 days) of the same molecule?
A: The value was 0.51.

Q: What about the “Relative Rate” value ([1]; bottle 2, 21 days) of the same molecule?
A: The value was 1.43.

Q: What about the “Relative Rate” value ([1]; bottle 2, 35 days) of the same molecule?
A: The value was 1.37.

Q: And the “Relative Rate” value ([1]; bottle 2, 50 days)?
A: The value was 1.24.

Q: What about the “Relative Rate” value ([1]; bottle 2, 79 days) of the same molecule?
A: The value was 1.13.

Q: What about the “Relative Rate” value ([1]; bottle 2, 138 days) of the same molecule?
A: The value was 0.49.

Q: And the “Relative Rate” value ([1]; bottle 3, 21 days)?
A: Its value is 0.80.

Q: What about the “Relative Rate” value ([1]; bottle 3, 35 days) of the same molecule?
A: Its value is 1.00.

Q: And the “Relative Rate” value ([1]; bottle 3, 50 days)?
A: Its value is 0.90.

Q: What about the “Relative Rate” value ([1]; bottle 3, 79 days) of the same molecule?
A: The value was 1.03.

Q: And the “Relative Rate” value ([1]; bottle 3, 138 days)?
A: Its value is 0.48.

Q: And the “dechlorination kinetics / completeness of dechlorination (in words)” value ([1]; through 138 days)?
A: Its value is “statistically higher dechlorination kinetics as compared to PS1 and molasses”.

Q: What about the “Relative Rate” value ([1]; time 21 days, bottles 1-3) of the same molecule?
A: Its value is 1.43 and 0.80 and 0.78.

Q: And the “Relative Rate” value ([1]; time 50 days, bottles 1-3)?
A: The value was 1.24 and 0.90 and 0.86.

Q: What about the “Relative Rate” value ([1]; time 79 days, bottles 1-3) of the same molecule?
A: The value was 1.08 and 1.13 and 1.03.

Q: What about the “Relative Rate” value ([1]; time 138 days, bottles 1-3) of the same molecule?
A: Its value is 0.51 and 0.49 and 0.48.

Q: And the “% of e^− used for dechlor.” value [2]?
A: Its value is 13.1%.

Q: What about the Chloride ([2]; Efficiency by COD analysis) of the same molecule?
A: The Chloride was 77.16 pmol.

Q: And the “Relative Efficiency” value ([2]; relative to Lactate Control)?
A: The value was 100%.
